Data reported in US20240254119A1 (THIRD HARMONIC BIO, INC., priority 2022, published 2024).

Tests used:
[1] = biological target: T1, CSF-1R (Homo sapiens, UniProt P07333); test: HTRF biochemical assay, CSF-1R; settings: Table 4
T1 construct: purchased Invitrogen PV3249 (lot 662393N)
In short: (§1)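 Kinase phosphorylation of a FAM-labelled peptide substrate, with ATP and Mn^2+ cofactors, run for 3 h at 25 °C, with optional enzyme–compound pre-incubation. Reactions were quenched with EDTA, and phosphopeptide was detected by anti-phosphotyrosine antibody HTRF.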

[2] = biological target: T2, wtKIT (Homo sapiens, UniProt P10721); test: HTRF biochemical assay, wtKIT (phosphorylation of a peptide substrate); settings: Table 4
T2 construct: 1888289AM in the reaction mixtures
T2 sequence (P10721 26-976): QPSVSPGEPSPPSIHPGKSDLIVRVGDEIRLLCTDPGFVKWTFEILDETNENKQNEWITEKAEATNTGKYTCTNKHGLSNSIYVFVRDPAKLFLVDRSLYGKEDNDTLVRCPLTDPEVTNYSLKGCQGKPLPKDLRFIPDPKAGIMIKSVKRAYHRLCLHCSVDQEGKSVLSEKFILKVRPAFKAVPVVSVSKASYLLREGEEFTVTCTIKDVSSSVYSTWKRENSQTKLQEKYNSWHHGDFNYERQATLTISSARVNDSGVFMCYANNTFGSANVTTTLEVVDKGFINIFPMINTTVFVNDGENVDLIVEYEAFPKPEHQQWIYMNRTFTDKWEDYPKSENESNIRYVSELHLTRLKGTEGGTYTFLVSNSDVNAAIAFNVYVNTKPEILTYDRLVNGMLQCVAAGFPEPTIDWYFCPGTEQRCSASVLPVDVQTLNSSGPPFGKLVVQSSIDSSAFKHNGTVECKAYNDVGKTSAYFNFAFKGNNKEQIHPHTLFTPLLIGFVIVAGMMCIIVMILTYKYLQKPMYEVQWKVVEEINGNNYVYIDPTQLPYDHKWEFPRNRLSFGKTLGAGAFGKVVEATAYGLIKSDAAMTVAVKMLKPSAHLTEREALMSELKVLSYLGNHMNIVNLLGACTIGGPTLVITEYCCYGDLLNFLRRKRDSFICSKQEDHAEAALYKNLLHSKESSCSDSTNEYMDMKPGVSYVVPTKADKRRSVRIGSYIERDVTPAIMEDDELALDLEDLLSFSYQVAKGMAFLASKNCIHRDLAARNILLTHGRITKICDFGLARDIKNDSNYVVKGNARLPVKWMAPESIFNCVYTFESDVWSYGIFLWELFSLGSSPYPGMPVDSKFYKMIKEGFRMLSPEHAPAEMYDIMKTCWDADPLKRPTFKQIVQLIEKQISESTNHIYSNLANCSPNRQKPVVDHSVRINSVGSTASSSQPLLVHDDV
In short: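 HTRF read-out of FAM-peptide (1 µM) phosphorylation after anti-phosphotyrosine antibody addition and EDTA quench. Reaction: 5.0 nM wtKIT, 400 µM ATP, 10 mM Mn2+, HEPES pH 7.5, 1% DMSO, 3 h, 25 °C; optional enzyme-compound preincubation; enzyme level set for 10-20% conversion.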

[3] = biological target: T3, PDGFRα (Homo sapiens, UniProt P16234); test: HTRF biochemical assay, PDGFRα; settings: Table 4, read-out: PDFGRα Biochemical IC50 avg
T3 construct: purchased Millipore 14-467 (lot 26321_ACTI)
T3 sequence (P16234 24-1089): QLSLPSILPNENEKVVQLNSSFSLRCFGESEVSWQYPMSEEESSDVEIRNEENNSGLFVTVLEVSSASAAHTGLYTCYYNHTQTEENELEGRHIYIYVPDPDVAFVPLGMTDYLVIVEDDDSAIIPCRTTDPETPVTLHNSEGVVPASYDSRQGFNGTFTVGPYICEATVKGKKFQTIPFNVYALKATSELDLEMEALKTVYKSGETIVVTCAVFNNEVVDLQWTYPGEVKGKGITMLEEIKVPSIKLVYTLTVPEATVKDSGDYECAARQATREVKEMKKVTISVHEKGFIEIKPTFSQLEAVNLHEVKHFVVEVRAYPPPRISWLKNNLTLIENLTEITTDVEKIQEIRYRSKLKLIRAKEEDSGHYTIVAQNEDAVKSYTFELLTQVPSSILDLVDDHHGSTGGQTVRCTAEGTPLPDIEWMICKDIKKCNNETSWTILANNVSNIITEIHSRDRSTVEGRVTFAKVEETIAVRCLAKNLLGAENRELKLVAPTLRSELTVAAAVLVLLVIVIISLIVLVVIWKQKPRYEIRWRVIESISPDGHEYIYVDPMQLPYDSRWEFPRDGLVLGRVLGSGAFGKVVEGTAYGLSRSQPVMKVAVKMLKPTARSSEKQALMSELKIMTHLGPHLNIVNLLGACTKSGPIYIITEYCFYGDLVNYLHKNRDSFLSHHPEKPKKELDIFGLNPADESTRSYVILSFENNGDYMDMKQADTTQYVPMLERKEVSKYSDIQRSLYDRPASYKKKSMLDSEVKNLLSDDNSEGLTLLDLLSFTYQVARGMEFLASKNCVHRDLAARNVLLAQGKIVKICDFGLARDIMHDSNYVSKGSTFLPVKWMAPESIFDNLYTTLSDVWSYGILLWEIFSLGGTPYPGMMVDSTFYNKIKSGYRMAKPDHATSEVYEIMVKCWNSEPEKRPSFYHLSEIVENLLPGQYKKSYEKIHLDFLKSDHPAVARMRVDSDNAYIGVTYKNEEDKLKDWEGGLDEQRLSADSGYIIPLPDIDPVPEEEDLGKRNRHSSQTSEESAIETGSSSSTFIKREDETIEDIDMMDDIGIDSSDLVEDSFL
In short: as §1

[4] = system: CYP3A4; test: Hepatocyte CYP induction assay, CYP3A4 gene expression; assay type: in vitro ADME; settings: human hepatocytes
Description: Exemplary compounds were tested for ability to induce CYP3A4 and/or CYP1A2 in hepatocytes. Procedures and results are described below.
Cryopreserved human hepatocytes were purchased from BioIVT (Baltimore, MD, USA), and they were stored in liquid nitrogen before using. The detailed information of hepatocytes is as follows:
Fresh dosing solutions of test compounds, and Rifampicin were prepared in the incubation medium on the day of dosing.
Cryopreserved hepatocytes were thawed and counted to determine yield, viability was measured. Hepatocytes at the concentrations of 0.7 million/mL were transferred to collagen-coated 96-well plates for attachment (0.1 mL viable cells/well). After allowing 4 to 5 hours for attachment of cells, the plating medium was replaced with Incubation Medium containing 2% (v/v) Matrigel™ (sandwich medium) and the hepatocytes were incubated until use.
All incubations were conducted at 37° C., 5% CO2, and saturated humidity.
The sandwich medium was removed and the hepatocytes were treated with incubation solutions containing test articles in vehicle (0.1% DMSO), or positive control for 24 hours after the cultures were established. The incubation solution was aspirated and replaced with incubation solution containing the same concentrations of test articles, vehicle, or positive controls for an additional 24 hours. The total treatment period was 48 hours. Triplicate were used for each concentration of test compound and positive control.
After treatment period of 48 hours, the incubation solution was aspirated. Hepatocytes were washed once with pre-warmed HBSS and incubated with 140 μL of RLT (lysis buffer from Rneasy 96 Kit) supplemented with 1% β-mercaptoethanol. Plates were then stored at ≤−60° C. freezer until RNA analysis.
Before RNA extraction, the frozen plate was thawed and cell lysates were transferred to 96-well plates. RNA isolation was performed using QIAcube HT System. RNA concentration was measured with NanoDrop ND-2000 spectrophotometer. The purity of RNA preparation was calculated by the ratio of the OD260 nm/OD280 nm and the acceptable range is between 1.8 and 2.2. Reverse transcription was performed to obtain cDNA. Quantification of the selective genes by real time quantitative Polymerase Chain Reaction (qPCR) was performed with TaqMan universal PCR Master Mix on the BIO-RAD CFX 384 Touch Real Time PCR System. The following setting were used: 50° C. for 2 minutes, 95° C. for 10 minutes, 40 cycles of 95° C. for 15 seconds and 60° C. for 1 minute. 18S rRNA was used as the internal standard.
To account for variation in RNA yields and reverse transcription polymerase chain reaction (RT-PCR), the gene of interest in all samples was normalized to an internal control gene (18S ribosomal RNA) (Cttarget gene−Ct18S=ΔCt).
The relative quantitation or change in mRNA level of selected genes induced by each test compound was expressed in relation to the vehicle control sample (Δctcompound−ΔCtvehicle=ΔΔCt). Fold changes in gene expression were determined by taking 2 to the power of this value (2^−ΔΔt).
% of positive control [(fold change in treated sample)−1]/[(fold change in positive control)−1]×100

T1 sequence (P07333 20-972): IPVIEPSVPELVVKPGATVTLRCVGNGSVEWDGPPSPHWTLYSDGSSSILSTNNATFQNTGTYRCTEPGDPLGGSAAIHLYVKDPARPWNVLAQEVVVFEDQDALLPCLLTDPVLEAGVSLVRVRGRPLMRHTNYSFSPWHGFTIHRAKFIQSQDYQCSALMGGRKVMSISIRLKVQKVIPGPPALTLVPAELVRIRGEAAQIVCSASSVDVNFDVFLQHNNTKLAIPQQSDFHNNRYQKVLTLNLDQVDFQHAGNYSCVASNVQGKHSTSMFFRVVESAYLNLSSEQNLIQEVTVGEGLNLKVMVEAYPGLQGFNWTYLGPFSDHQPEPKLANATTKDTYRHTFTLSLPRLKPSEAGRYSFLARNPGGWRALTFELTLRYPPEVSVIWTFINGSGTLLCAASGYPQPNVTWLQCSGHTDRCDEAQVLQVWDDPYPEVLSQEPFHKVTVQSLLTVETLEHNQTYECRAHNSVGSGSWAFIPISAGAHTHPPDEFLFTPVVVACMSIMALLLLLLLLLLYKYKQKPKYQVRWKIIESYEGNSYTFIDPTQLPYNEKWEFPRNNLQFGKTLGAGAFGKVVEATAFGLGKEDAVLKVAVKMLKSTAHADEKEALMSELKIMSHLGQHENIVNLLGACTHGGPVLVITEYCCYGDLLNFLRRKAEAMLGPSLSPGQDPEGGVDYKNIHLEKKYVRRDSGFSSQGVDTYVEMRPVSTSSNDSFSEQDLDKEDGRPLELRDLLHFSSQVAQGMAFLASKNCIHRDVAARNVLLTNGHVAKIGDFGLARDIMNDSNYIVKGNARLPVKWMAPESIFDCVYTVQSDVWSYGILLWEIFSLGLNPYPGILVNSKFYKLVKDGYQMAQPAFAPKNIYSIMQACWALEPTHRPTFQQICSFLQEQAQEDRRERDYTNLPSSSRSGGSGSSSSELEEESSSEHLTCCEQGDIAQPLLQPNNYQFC

Structure (SMILES) | IC50 [1] [nM] | IC50 [2] [nM] | IC50 [3] [nM] | CYP 3A4 induction mRNA: Mean fold at 10 μM ([4]; donor four) | other results
Cc1ccc(-c2noc(CCO)n2)cc1NC(=O)c1cnc2ccccn12 [Compound I-306] | 500 to 5000 | 50 to 500 | 500 to 5000 | – | –
Cc1ccc(-c2noc(CC(C)(C)O)n2)cc1NC(=O)c1cnc2ccccn12 [Compound I-336] | 50 to 500 | 50 to 500 | 50 to 500 | – | –
Cc1ccc(-c2noc(CC(C)O)n2)cc1NC(=O)c1cnc2ccccn12 (racemic) [Compound I-363] | – | – | – | + (induction fold of less than or equal to 2-fold) | CYP 3A4 induction mRNA: Mean fold at 10 μM ([4]; donor five): + (induction fold of less than or equal to 2-fold); CYP 3A4 induction mRNA: Mean fold at 10 μM ([4]; donor three): + (induction fold of less than or equal to 2-fold)
COC(=O)N1CC(c2nc(-c3ccc(C(F)F)c(NC(=O)c4cnc5ccccn45)c3)no2)C1 [Compound I-225] | 500 to 5000 | ≤ 50 | 5000 to 30000 | +++ (induction fold of greater than 3-fold to less than or equal to 10-fold) | –
COc1ccc2ncc(C(=O)Nc3cc(-c4noc(C[C@@H](C)O)n4)ccc3C)n2c1 [Compound I-119] | 500 to 5000 | ≤ 50 | 500 to 5000 | + (induction fold of less than or equal to 2-fold) | –
Cc1nc(-c2ccc(C)c(NC(=O)c3cnc4ccc(N(C)C)cn34)c2)no1 [Compound I-205] | – | ≤ 50 | – | – | –
COc1ccn2c(C(=O)Nc3cc(-c4noc(CC5CC(F)(F)C5)n4)ccc3C)cnc2c1 [Compound I-91] | 50 to 500 | ≤ 50 | 50 to 500 | – | –
Cc1ccc(-c2noc(CC(=O)O)n2)cc1NC(=O)c1cnc2ccccn12 [Compound I-335] | – | 50 to 500 | – | – | –
Cc1ccc(-c2noc(C(C)NS(C)(=O)=O)n2)cc1NC(=O)c1cnc2ccccn12 (single isomer, unassigned) [Compound I-237] | – | 50 to 500 | – | – | –
COc1ccn2c(C(=O)Nc3cc(-c4noc(C[C@H](C)O)n4)ccc3C)cnc2c1 [Compound I-94] | ≤ 50 | ≤ 50 | 50 to 500 | – | –
COC(=O)N1CC(c2nc(-c3ccc(C)c(NC(=O)c4cnc5cc(OC[C@H](C)O)ccn45)c3)no2)C1 [Compound I-262] | – | ≤ 50 | – | – | –
Cc1ccc(-c2noc(C3CCN3)n2)cc1NC(=O)c1cnc2ccccn12 (racemic) [Compound I-394] | – | 50 to 500 | – | + (induction fold of less than or equal to 2-fold) | CYP 3A4 induction mRNA: Mean fold at 10 μM ([4]; donor five): + (induction fold of less than or equal to 2-fold); CYP 3A4 induction mRNA: Mean fold at 10 μM ([4]; donor three): + (induction fold of less than or equal to 2-fold)
Cc1ccc(-c2noc(CC(O)C(F)F)n2)cc1NC(=O)c1cnc2ccccn12 (stereo not shown) [Compound I-122] | 50 to 500 | ≤ 50 | 500 to 5000 | – | –
COCCOCc1ccn2c(C(=O)Nc3cc(-c4noc([C@H]5C[C@@H]5F)n4)ccc3C)cnc2c1 [Compound I-84] | ≤ 50 | ≤ 50 | 500 to 5000 | + (induction fold of less than or equal to 2-fold) | –
COC(=O)N1CC(c2nc(-c3ccc(C)c(NC(=O)c4cnc5cc(O[C@@H](C)CO)ccn45)c3)no2)C1 (single isomer, unassigned) [Compound I-217] | – | ≤ 50 | – | – | –
COc1ccn2c(C(=O)Nc3cc(-c4noc(C5CC(F)(F)C5)n4)ccc3C)cnc2c1 [Compound I-96] | ≤ 50 | ≤ 50 | 50 to 500 | – | –
Cc1ccc(-c2noc([C@H]3CC(F)(F)CN3)n2)cc1NC(=O)c1cnc2ccccn12 [Compound I-359] | – | 50 to 500 | – | + (induction fold of less than or equal to 2-fold) | –

Structure (SMILES) | IC50 [1] [nM] | IC50 [2] [nM] | IC50 [3] [nM] | CYP 3A4 induction mRNA: Mean fold at 10 μM ([4]; donor four) | other results
Cc1nc(-c2ccc(C)c(NC(=O)c3cnc4ccccn34)c2)no1 [Compound I-360] | – | ≤ 50 | – | – | –
COC(=O)N1CC(c2nc(-c3ccc(C)c(NC(=O)c4cnc5cc(OC[C@@H](C)O)ccn45)c3)no2)C1 [Compound I-263] | – | ≤ 50 | – | – | –
CCCS(=O)(=O)N1CC(c2nc(-c3ccc(Cl)c(NC(=O)c4cnc5ccccn45)c3)no2)C1 [Compound I-220] | – | ≤ 50 | – | +++ (induction fold of greater than 3-fold to less than or equal to 10-fold) | –
Cc1ccc(-c2noc([C@H]3CCC(=O)N3)n2)cc1NC(=O)c1cnc2ccccn12 (racemic) [Compound I-327] | – | – | – | + (induction fold of less than or equal to 2-fold) | CYP 3A4 induction mRNA: Mean fold at 10 μM ([4]; donor five): + (induction fold of less than or equal to 2-fold); CYP 3A4 induction mRNA: Mean fold at 10 μM ([4]; donor three): + (induction fold of less than or equal to 2-fold)
Cc1ccc(-c2cnc(N3CC(F)(F)C3)o2)cc1NC(=O)c1cnc2ccccn12 [Compound I-213] | – | 50 to 500 | – | – | –
Cc1ccc(-c2noc([C@H]3C[C@@H]3F)n2)cc1NC(=O)c1cnc2cc(OC(F)(F)F)ccn12 [Compound I-87] | 50 to 500 | 50 to 500 | 5000 to 30000 | + (induction fold of less than or equal to 2-fold) | –
Cc1ccc(-c2noc(C3CC(OCCF)C3)n2)cc1NC(=O)c1cnc2ccccn12 (stereo not shown) [Compound I-369] | 5000 to 30000 | ≤ 50 | 5000 to 30000 | – | –
Cc1ccc(-c2noc([C@H](C)O)n2)cc1NC(=O)c1cnc2ccccn12 [Compound I-271] | – | – | – | + (induction fold of less than or equal to 2-fold) | –
Cc1ccc(-c2noc([C@H]3C[C@@H]3F)n2)cc1NC(=O)c1cnc2ccc(F)cn12 [Compound I-288] | 50 to 500 | ≤ 50 | 500 to 5000 | – | CYP 3A4 induction mRNA: Mean fold at 10 μM ([4]; donor two): ++++ (induction fold of greater than 10-fold)
COc1ccn2c(C(=O)Nc3cc(-c4noc(CC(O)C(F)F)n4)ccc3C)cnc2c1 (single isomer, unassigned) [Compound I-76] | ≤ 50 | ≤ 50 | 50 to 500 | – | –
Cc1ccc(-c2noc([C@H]3C[C@@H]3F)n2)cc1NC(=O)c1cnn2ccccc12 [Compound I-109] | 50 to 500 | ≤ 50 | 500 to 5000 | – | –
Cc1ccc(-c2noc(C3COC3)n2)cc1NC(=O)c1cnc2ccccn12 [Compound I-138] | – | – | – | + (induction fold of less than or equal to 2-fold) | –
Cc1ccc(-c2noc(C(C)NS(C)(=O)=O)n2)cc1NC(=O)c1cnc2ccccn12 (single isomer, unassigned) [Compound I-238] | – | 50 to 500 | – | – | –
CCOc1ccn2c(C(=O)Nc3cc(-c4noc([C@H]5C[C@@H]5F)n4)ccc3C)cnc2c1 [Compound I-93] | ≤ 50 | ≤ 50 | 50 to 500 | – | –
COC(=O)N1CC(c2nc(-c3ccc(Cl)c(NC(=O)c4cnc5ccccn45)c3)no2)C1 [Compound I-339] | 500 to 5000 | ≤ 50 | 500 to 5000 | – | –
COCCS(=O)(=O)N1CC(c2nc(-c3ccc(C)c(NC(=O)c4cnc5ccccn45)c3)no2)C1 [Compound I-235] | – | 50 to 500 | – | – | –
